Source: patent publication US20200325127A1, “PYRIDIN-3-YL ACETIC ACID DERIVATIVES AS INHIBITORS OF HUMAN IMMUNODEFICIENCY VIRUS REPLICATION” (priority 2016, published 2020)
pEC50: −log10 of the molar value. Like-named read-outs stand apart in the source and are kept apart here.

Tested on: NL-RLuc virus
Experiment: Inhibition of HIV replication (NL-RLuc luciferase reporter virus in MT-2 cells)
Assay type: cell-based
Conditions: Human immunodeficiency virus 1, MT2, 120 h; for EC50: read-out: EC50 μM; for pEC50: read-out: Activity
Excerpt: Inhibition of HIV replication: A recombinant NL-RLuc proviral clone was constructed in which a section of the nef gene from NL4-3 was replaced with the Renilla Luciferase gene. This virus is fully infectious and can undergo multiple cycles of replication in cell culture. In addition, the luciferous reporter provides a simple and easy method for quantitating the extent of virus growth and consequently, the antiviral activity of test compounds. The plasmid pNLRLuc contains the proviral NL-Rluc DNA cloned into pUC18 at the PvuII site. The NL-RLuc virus was prepared by transfection of 293T cells with the plasmid pNLRLuc. Transfections were performed using the LipofectAMINE PLUS kit from Invitrogen (Carlsbad, Calif.) according to the manufacturer and the virus generated was titered in MT-2 cells. For susceptibility analyses, the titrated virus was used to infect MT-2 cells in the presence of compound, and after 5 days of incubation, cells were processed and quantitated for virus growth by the amount of expressed luciferase. Assay media was RPMI 1640 supplemented with 10% heat inactivated fetal bovine serum (FBS), 100 units/ml penicillin G/100 units/ml streptomycin, 10 mM HEPES buffer pH 7.55 and 2 mM L-glutamine. The results from at least 2 experiments were used to calculate the EC50 values. Luciferase was quantitated using the Dual Luciferase kit from Promega (Madison, Wis.). Susceptibility of viruses to compounds was determined by incubation in the presence of serial dilutions of the compound. The 50% effective concentration (EC50) was calculated by using the exponential form of the median effect equation where (Fa)=1/[1+(ED50/drug conc.)^m](Johnson V A, Byington R T. Infectivity Assay. In Techniques in HIV Research. ed. Aldovini A, Walker B D. 71-76. New York: Stockton Press. 1990). Activity equal to A refers to a compound having an EC50≤100 nM, while B and C denote compounds having an EC50 between 100 nM and 1 uM (B) or >1 uM (C).

## COc1ccc2cnc(N3CCc4cc(-c5c(C)nc(C)c([C@H](OC(C)(C)C)C(=O)O)c5N5CCC(C)(C)CC5)ccc4C3)nc2c1 [Compound 74]
  EC50: 0.006 µM

## Cc1nc(C)c([C@H](OC(C)(C)C)C(=O)O)c(N2CCC(C)(C)CC2)c1-c1ccc2c(c1)CCN(c1cc(-n3ccnc3)ncn1)C2 [Compound 49]
  pEC50: > 7.00

## Cc1nc(C)c([C@H](OC(C)(C)C)C(=O)O)c(N2CCC(C)(C)CC2)c1-c1ccc2c(c1)CCN(c1nccc3ncncc13)C2 [Compound 86]
  EC50: 0.001 µM

## Cc1nc(C)c([C@H](OC(C)(C)C)C(=O)O)c(N2CCC(C)(C)CC2)c1-c1ccc2c(c1)CCN(c1nccc(C(F)(F)F)n1)C2 [Compound 11]
  pEC50: > 7.00

## Cc1nc(C(F)(F)F)nc(N2CCc3cc(-c4c(C)nc(C)c([C@H](OC(C)(C)C)C(=O)O)c4N4CCC(C)(C)CC4)ccc3C2)c1C [Compound 58]
  pEC50: > 7.00

## Cc1nc(C)c([C@H](OC(C)(C)C)C(=O)O)c(N2CCC(C)(C)CC2)c1-c1ccc2c(c1)CCN(c1nccs1)C2 [Compound 6]
  pEC50: > 7.00
  EC50: 0.007 µM

## Cc1nc(C)c([C@H](OC(C)(C)C)C(=O)O)c(N2CCC(C)(C)CC2)c1-c1ccc2c(c1)CCN(c1ncncc1-c1ccccc1)C2 [Compound 38]
  pEC50: > 7.00

## Cc1cc(N2CCc3cc(-c4c(C)nc(C)c([C@H](OC(C)(C)C)C(=O)O)c4N4CCC(C)(C)CC4)ccc3C2)nc(N)n1 [Compound 61]
  pEC50: > 7.00

## Cc1nc2ccccc2nc1N1CCc2cc(-c3c(C)nc(C)c([C@H](OC(C)(C)C)C(=O)O)c3N3CCC(C)(C)CC3)ccc2C1 [Compound 87]
  EC50: 0.01 µM

## Cc1nc(C)c([C@H](OC(C)(C)C)C(=O)O)c(N2CCC(C)(C)CC2)c1-c1ccc2c(c1)CCN(c1ncc3cc(Br)ccc3n1)C2 [Compound 72]
  EC50: 0.004 µM

## COc1nccc(N2CCc3cc(-c4c(C)nc(C)c([C@H](OC(C)(C)C)C(=O)O)c4N4CCC(C)(C)CC4)ccc3C2)n1 [Compound 40]
  pEC50: > 7.00
  EC50: 0.002 µM

## Cc1nc(C)c([C@H](OC(C)(C)C)C(=O)O)c(N2CCC(C)(C)CC2)c1-c1ccc2c(c1)CCN(c1ccnc(C3CC3)n1)C2 [Compound 59]
  pEC50: > 7.00

## Cc1nc(NC(C)(C)C)cc(N2CCc3cc(-c4c(C)nc(C)c([C@H](OC(C)(C)C)C(=O)O)c4N4CCC(C)(C)CC4)ccc3C2)n1 [Compound 64]
  pEC50: > 7.00

## COc1cc(N2CCc3cc(-c4c(C)nc(C)c([C@H](OC(C)(C)C)C(=O)O)c4N4CCC(C)(C)CC4)ccc3C2)nc(N)n1 [Compound 56]
  pEC50: > 7.00

## COc1cc2ncnc(N3CCc4cc(-c5c(C)nc(C)c([C@H](OC(C)(C)C)C(=O)O)c5N5CCC(C)(C)CC5)ccc4C3)c2cc1OC [Compound 84]
  EC50: 0.002 µM

## Cc1nc(C)c([C@H](OC(C)(C)C)C(=O)O)c(N2CCC(C)(C)CC2)c1-c1ccc2c(c1)CCN(c1cc(Nc3ccccc3)ncn1)C2 [Compound 53]
  pEC50: > 7.00

## Cc1cc(N2CCc3cc(-c4c(C)nc(C)c([C@H](OC(C)(C)C)C(=O)O)c4N4CCC(C)(C)CC4)ccc3C2)ncn1 [Compound 19]
  pEC50: > 7.00

## Cc1nc(C)c([C@H](OC(C)(C)C)C(=O)O)c(N2CCC(C)(C)CC2)c1-c1ccc2c(c1)CCN(c1nc(C(F)(F)F)cc3ccccc13)C2 [Compound 79]
  EC50: 0.007 µM

## Cc1nc(C)c([C@H](OC(C)(C)C)C(=O)O)c(N2CCC(C)(C)CC2)c1-c1ccc2c(c1)CCN(c1ncnc(N)c1C)C2 [Compound 55]
  pEC50: > 7.00
  EC50: 0.004 µM

## COc1nc(O)nc(N2CCc3cc(-c4c(C)nc(C)c([C@H](OC(C)(C)C)C(=O)O)c4N4CCC(C)(C)CC4)ccc3C2)n1 [Compound 13]
  pEC50: 6.00 to 7.00
  EC50: 0.278 µM

## Cc1nc(C)c([C@H](OC(C)(C)C)C(=O)O)c(N2CCC(C)(C)CC2)c1-c1ccc2c(c1)CCN(c1cc(N)ncn1)C2 [Compound 42]
  pEC50: > 7.00

## Cc1nc(C)c([C@H](OC(C)(C)C)C(=O)O)c(N2CCC(C)(C)CC2)c1-c1ccc2c(c1)CCN(c1ncnc(Cl)c1N)C2 [Compound 54]
  pEC50: > 7.00

## Cc1nc(C)c([C@H](OC(C)(C)C)C(=O)O)c(N2CCC(C)(C)CC2)c1-c1ccc2c(c1)CCN(c1ncnc3c1CCCC3)C2 [Compound 15]
  pEC50: > 7.00

## Cc1nc(C)c([C@H](OC(C)(C)C)C(=O)O)c(N2CCC(C)(C)CC2)c1-c1ccc2c(c1)CCN(c1nccc3ccccc13)C2 [Compound 78]
  EC50: 0.003 µM

## Cc1nc(C)c([C@H](OC(C)(C)C)C(=O)O)c(N2CCC(C)(C)CC2)c1-c1ccc2c(c1)CCN(c1ncc3cc(F)ccc3n1)C2 [Compound 75]
  EC50: 0.003 µM

## Cc1nc(C)c([C@H](OC(C)(C)C)C(=O)O)c(N2CCC(C)(C)CC2)c1-c1ccc2c(c1)CCN(c1ncnc3cc(Cl)ccc13)C2 [Compound 89]
  EC50: 0.004 µM

## Cc1nc(C)c([C@H](OC(C)(C)C)C(=O)O)c(N2CCC(C)(C)CC2)c1-c1ccc2c(c1)CCN(c1nccc(C#N)n1)C2 [Compound 26]
  pEC50: > 7.00

## Cc1nc(C)c([C@H](OC(C)(C)C)C(=O)O)c(N2CCC(C)(C)CC2)c1-c1ccc2c(c1)CCN(c1ncncc1F)C2 [Compound 25]
  pEC50: > 7.00

## COc1cc(N2CCc3cc(-c4c(C)nc(C)c([C@H](OC(C)(C)C)C(=O)O)c4N4CCC(C)(C)CC4)ccc3C2)ncn1 [Compound 31]
  pEC50: > 7.00

## Cc1nc(C)c([C@H](OC(C)(C)C)C(=O)O)c(N2CCC(C)(C)CC2)c1-c1ccc2c(c1)CCN(c1ncc3ccccc3n1)C2 [Compound 73]
  EC50: 0.002 µM

## CSc1nccc(N2CCc3cc(-c4c(C)nc(C)c([C@H](OC(C)(C)C)C(=O)O)c4N4CCC(C)(C)CC4)ccc3C2)n1 [Compound 39]
  pEC50: > 7.00

## Cc1cc(N2CCc3cc(-c4c(C)nc(C)c([C@H](OC(C)(C)C)C(=O)O)c4N4CCC(C)(C)CC4)ccc3C2)nc(C)n1 [Compound 29]
  pEC50: > 7.00
  EC50: 0.004 µM

## Cc1nc(C)c([C@H](OC(C)(C)C)C(=O)O)c(N2CCC(C)(C)CC2)c1-c1ccc2c(c1)CCN(c1nccc3cccnc13)C2 [Compound 77]
  EC50: 0.002 µM

## CCc1cnc(N2CCc3cc(-c4c(C)nc(C)c([C@H](OC(C)(C)C)C(=O)O)c4N4CCC(C)(C)CC4)ccc3C2)nc1 [Compound 33]
  pEC50: > 7.00

## Cc1nc(C)c([C@H](OC(C)(C)C)C(=O)O)c(N2CCC(C)(C)CC2)c1-c1ccc2c(c1)CCN(c1ccnc3cccnc13)C2 [Compound 88]
  EC50: 0.001 µM

## COCc1cc(N2CCc3cc(-c4c(C)nc(C)c([C@H](OC(C)(C)C)C(=O)O)c4N4CCC(C)(C)CC4)ccc3C2)ncn1 [Compound 51]
  pEC50: > 7.00

## Cc1nc(C)c([C@H](OC(C)(C)C)C(=O)O)c(N2CCC(C)(C)CC2)c1-c1ccc2c(c1)CCN(c1nnc(-c3ccccc3)cc1C(N)=O)C2 [Compound 9]
  pEC50: > 7.00

## CNc1nccc(N2CCc3cc(-c4c(C)nc(C)c([C@H](OC(C)(C)C)C(=O)O)c4N4CCC(C)(C)CC4)ccc3C2)n1 [Compound 36]
  pEC50: > 7.00

## Cc1nc(C)c([C@H](OC(C)(C)C)C(=O)O)c(N2CCC(C)(C)CC2)c1-c1ccc2c(c1)CCN(c1ncc(F)cn1)C2 [Compound 21]
  pEC50: > 7.00

## COc1cc(N2CCc3cc(-c4c(C)nc(C)c([C@H](OC(C)(C)C)C(=O)O)c4N4CCC(C)(C)CC4)ccc3C2)nc(OC)n1 [Compound 14]
  pEC50: > 7.00

## Cc1nc(C)c([C@H](OC(C)(C)C)C(=O)O)c(N2CCC(C)(C)CC2)c1-c1ccc2c(c1)CCN(c1nccc(N3CCOCC3)n1)C2 [Compound 10]
  pEC50: > 7.00

## COc1ccnc(N2CCc3cc(-c4c(C)nc(C)c([C@H](OC(C)(C)C)C(=O)O)c4N4CCC(C)(C)CC4)ccc3C2)n1 [Compound 12]
  pEC50: > 7.00

## Cc1nc(C)c([C@H](OC(C)(C)C)C(=O)O)c(N2CCC(C)(C)CC2)c1-c1ccc2c(c1)CCN(c1ncc(Cl)cn1)C2 [Compound 23]
  pEC50: > 7.00

## Cc1cnc(N2CCc3cc(-c4c(C)nc(C)c([C@H](OC(C)(C)C)C(=O)O)c4N4CCC(C)(C)CC4)ccc3C2)nc1 [Compound 17]
  pEC50: > 7.00

## Cc1nc(C)c([C@H](OC(C)(C)C)C(=O)O)c(N2CCC(C)(C)CC2)c1-c1ccc2c(c1)CCN(c1nnc(-c3ccccc3)cc1C#N)C2 [Compound 68]
  pEC50: > 7.00

## Cc1ncnc(N2CCc3cc(-c4c(C)nc(C)c([C@H](OC(C)(C)C)C(=O)O)c4N4CCC(C)(C)CC4)ccc3C2)c1F [Compound 24]
  pEC50: > 7.00

## Cc1nc(O)cc(N2CCc3cc(-c4c(C)nc(C)c([C@H](OC(C)(C)C)C(=O)O)c4N4CCC(C)(C)CC4)ccc3C2)n1 [Compound 65]
  pEC50: 6.00 to 7.00

## Cc1nc(C)c([C@H](OC(C)(C)C)C(=O)O)c(N2CCC(C)(C)CC2)c1-c1ccc2c(c1)CCN(c1ncnc3c1CCC3)C2 [Compound 52]
  pEC50: > 7.00

## Cc1ccnc(N2CCc3cc(-c4c(C)nc(C)c([C@H](OC(C)(C)C)C(=O)O)c4N4CCC(C)(C)CC4)ccc3C2)n1 [Compound 30]
  pEC50: > 7.00

## Cc1nc(C)c([C@H](OC(C)(C)C)C(=O)O)c(N2CCC(C)(C)CC2)c1-c1ccc2c(c1)CCN(c1ncnc3ccccc13)C2 [Compound 76]
  EC50: 0.002 µM
